One data set has as its target T1, GIRK2 (Homo sapiens, UniProt P48051).
T1 construct: expressed in transfected cells; host or cells: HEK-293
T1 sequence (P48051 1-423): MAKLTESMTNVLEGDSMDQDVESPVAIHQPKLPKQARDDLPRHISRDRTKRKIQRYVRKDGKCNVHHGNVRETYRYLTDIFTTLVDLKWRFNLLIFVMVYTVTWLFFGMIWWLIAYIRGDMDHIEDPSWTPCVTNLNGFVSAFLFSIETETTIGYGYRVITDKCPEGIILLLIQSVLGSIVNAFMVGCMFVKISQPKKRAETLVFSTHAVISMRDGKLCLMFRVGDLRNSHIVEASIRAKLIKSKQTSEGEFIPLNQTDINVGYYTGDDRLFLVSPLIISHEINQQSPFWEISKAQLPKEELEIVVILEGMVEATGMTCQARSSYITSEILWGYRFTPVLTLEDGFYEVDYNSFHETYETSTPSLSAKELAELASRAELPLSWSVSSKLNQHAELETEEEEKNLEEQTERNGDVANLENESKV
The data set is described as follows: Thallium flux assay, HEK-293 cells expressing GIRK2 alone. The data set is classed as cell-based. Conditions: cell line GIRK2. From the text:
Cell Line Construction and Cell Culture. HEK-293 cells co-expressing human GIRK1/2 and rat mGlu8 were generated as previously described (Niswender et al., 2008). A HEK-293 cell line (ATCC, Manassas, Va.) expressing human GIRK1 and human GIRK2 was constructed by transfecting HEK-293 cells with GIRK1 and GIRK2 (Origene, Rockville, Md.) cloned into the pBudCE4.1 vector (Life Technologies, Carlsbad, Calif.) using FuGene 6 (Promega, Madison, Wis.) transfection reagent. Unless otherwise noted, other ion channel-expressing cells were prepared by transfecting HEK-293 cells with individual or combinations of subunits: GIRK1, pCMV6-A-BSD; GIRK2, pCMV6-A-puro; GIRK3, pCMV6-A-hygro; GIRK4, pCMV6-A-AC; Kv7.4, pIRESneo3. The Kir2.1 and hERG-expressing cell lines were made by transfecting T-REx-293 cells (Life Technologies, Carlsbad, Calif.) with Kir2.1 and Kv11.1, respectively, cloned into pcDNA5TO. Monoclonal cell lines were produced by limiting-dilution cloning of antibiotic-resistant cells and functional selection using the thallium flux assay described below. Unless otherwise noted, cells were maintained in Minimal Essential Medium, Alpha Medium (Mediatech, Manassas, Va.) supplemented with 10% fetal bovine serum (Sigma-Aldrich, Saint Louis, Mo.) and GlutaGro (Mediatech, Manassas, Va.), referred to henceforth as cell culture medium. […]

Another data set deals with T2, Adenosine A3 (Homo sapiens, UniProt P0DMS8).
T2 construct: Ricerca (contract assay)
The data set is described as follows: Radioligand displacement (Ricerca). The data set is classed as binding. (In general: Displacement assays read how much labelled ligand stays bound in the presence of the test substance.)

For a further data set, the system named is Glutamate (kainate). The data set is described as follows: Radioligand displacement (Ricerca). The data set is classed as binding, rat. Conditions: 10 μM.
Data set [1] is described as follows: Home cage locomotor activity (SmartCage). Conditions: mice, 60 mg/kg i.p., 24 hours after injection. The data set is classed as in vivo, mouse. Here is the method: The SmartCageTM system ([…], Inc., Burlingame, Calif.) was used to assess compound effects on spontaneous homecage activity. Automated data analysis was performed using CageScoreTM software ([…], Inc.). The home cage activity was determined by beam breaks (x, y, and z photo-beam break counts). Distance traveled in centimeters was obtained from the lower horizontal sensors (x and y) taking into account the path taken. Average velocity was distance traveled/second in the forward direction, averaged over the block time (bin). Mice (male C57/BL6, 8-10 months old, approximately 30 g) mice were assessed continuously for 72 hours. The first 24 hours was used as a habituation period. The locomotion data obtained from the second 24 hours served as the baseline data for each mouse. […] After receiving their respective treatments, each mouse's locomotor activity was monitored over the 24 hours to assess recovery from drug effects.

Here are results for one compound from patent US9067894B1, “Compound, composition, and method of activating GIRK potassium channel and use of same for treating conditions of interest” (Vanderbilt University, priority 2013, dated 2015).

“Also recorded” adds a separate entry of the source.

T2 sequence (P0DMS8 whole entry): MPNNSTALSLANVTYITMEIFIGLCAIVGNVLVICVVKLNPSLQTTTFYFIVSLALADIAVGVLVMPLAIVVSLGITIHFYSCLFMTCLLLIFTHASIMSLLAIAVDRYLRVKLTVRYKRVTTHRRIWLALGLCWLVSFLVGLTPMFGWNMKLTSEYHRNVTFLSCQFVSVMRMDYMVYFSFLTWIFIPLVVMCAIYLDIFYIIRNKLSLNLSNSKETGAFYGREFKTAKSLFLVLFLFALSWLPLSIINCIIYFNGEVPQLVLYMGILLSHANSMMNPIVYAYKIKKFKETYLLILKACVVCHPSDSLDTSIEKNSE

For the compound `Cc1cc(NC(=O)Nc2ccc(F)c(F)c2)n(-c2ccccc2)n1` [VU0456810, 1-(3,4-difluorophenyl)-3-(3-methyl-1-phenyl-1H-pyrazol-5-yl)urea], the “EC50 Thallium Flux” value at GIRK2 is “complete inability to modulate; also recorded: Inactive”; on GIRK2 (listed as 2), “inactive”. Further, testing at 10 µM on Adenosine A3 gave an inhibition of 8%. The % Inhibition (as a rule, the percentage by which the read-out fell short of the control) in the data set with Glutamate (kainate) stood at 1%. In data set [1], the “locomotor activity in home cage vs vehicle” value is on record as “overall decrease in locomotor activity; also recorded: decreased”.
